# Test results from patent US20230310414A1.
# Read-outs that look alike come from different tables or passages of the source.
# How the values were obtained:
# [1] = test system: IRAK1, NF-κB, MAPKs, IRAK4 (MyD88); experiment: MyD88 downstream signalling in human macrophages; format: cell-based
# SARS-CoV-2 = experiment: cell viability (CPE) assay, VERO-E6 cells enriched for ACE-2 infected with SARS-CoV-2, CellTiter-Glo; format: cell-based; conditions: for IC50: VERO-E6 cells enriched for ACE-2 plus SARS-CoV-2; for EC50: CPE assay
# [2] = toxicity assay, VERO-E6 cells enriched for ACE-2 in the absence of virus, CellTiter-Glo; conditions: African green monkey, VERO-E6 cells enriched for ACE-2 receptor, no virus
# VERO-E6 cells = experiment: as above; conditions: compound alone
# [3] = human macrophages, through interaction with MyD88
# [4] = Severe acute respiratory syndrome coronavirus 2, Vero C1008, positive controls, read-out: IC50 (μM), In Vitro Anti-SARS-CoV-2 Activity
compound,measurement,setting,value
O.O=C(OC[C@H]1O[C@@H](OC(=O)c2cc(O)c(O)c(O)c2)[C@H](OC(=O)c2cc(O)c(O)c(O)c2)[C@@H](OC(=O)c2cc(O)c(O)c(O)c2)[C@@H]1OC(=O)c1cc(O)c(O)c(O)c1)c1cc(O)c(O)c(O)c1,NF-κB translocation into the nucleus,[1],inhibited
same,"activation of IRAK1, NF-κB, and MAPKs",[1]; [3],potently reduced
same,expression of IRAK4,[1]; [3],increasing expression
"CCN(CC)CCCC(C)Nc1ccnc2cc(Cl)ccc12 (centres unmarked) [Chloroquine, chloroquine, reference compound]",IC50,SARS-CoV-2; [4],3.78 µM
same,CC50,[2],> 30 µM
"CCOC(=O)[C@H]1O[C@@H]1C(=O)N[C@@H](CC(C)C)C(=O)NCCC(C)C [E64d (aloxistatin), aloxistatin, reference compound]",IC50,SARS-CoV-2; [4],7.48 µM
same,CC50,[2],> 30 µM
"CCN(CCO)CCCC(C)Nc1ccnc2cc(Cl)ccc12 (centres unmarked) [Hydroxychloroquine, hydroxychloroquine, reference compound]",IC50,SARS-CoV-2; [4],3.53 µM
same,CC50,[2],> 30 µM
"CCC(CC)COC(=O)[C@H](C)N[P@](=O)(OC[C@H]1O[C@@](C#N)(c2ccc3c(N)ncnn23)[C@H](O)[C@@H]1O)Oc1ccccc1 [Remdesivir, remdesivir, reference compound]",CC50,[2],> 30 µM
"COc1ccc2cc1Oc1ccc(cc1)C[C@H]1c3cc(c(OC)cc3CCN1C)Oc1c(OC)c(OC)cc3c1[C@H](C2)N(C)CC3 [tetrandrine, (1S,14S)-9,20,21,25-tetramethoxy-15,30-dimethyl-7,23-dioxa-15,30-diazaheptacyclo[22.6.2.2^3,6.1^8,12.1^14,18.0^27,31.0^22,33]hexatriaconta-3(36),4,6(35),8,10,12(34),18,20,22(33),24,26,31-dodecaene]",EC50,"SARS-CoV-2; Severe acute respiratory syndrome coronavirus 2, Vero C1008, compound alone",1.25 µM
same,SI (selectivity index; CC50/EC50),SARS-CoV-2; compound alone,SI: 5.02.
same,CC50,[2],6.28 µM
"(14S,27S)-22,33-dimethoxy-13,28-dimethyl-2,5,7,20-tetraoxa-13,28-diazaoctacyclo[25.6.2.2^16,19.1^3,10.1^21,25.0^4,8.0^31,35.0^14,39]nonatri-aconta-1(33),3(39),4(8),9,16(38),17,19(37),21,23,25(36),31,34-dodecaene [cepharanthine]",EC50,SARS-CoV-2; compound alone,0.51 µM
same,IC50,"SARS-CoV-2; compound alone, read-out: IC50",0.51 µM
same,CC50,"VERO-E6 cells; VERO-E6 cells enriched for ACE-2, absence of virus",7.22 µM
same,CC50,VERO-E6 cells,7.22 µM
